Experimental findings from patent publication US9958451B2, “Near-infrared fluorescent dyes with large stokes shifts” (Portland State University, priority 2011, dated 2018) are described below.

The series is described as follows: Spectral properties of rhodamine bis-boronic acids and precursors in DMSO:buffer. The series is classed as physicochemical. More on the design: Brightness: scale not given here. The protocol: Characterization: The spectral properties of compounds 50-53 were determined. Absorption and fluorescence spectra of solutions of the rhodamine bis-boronic acids 51 and 53, and their respective precursors 50 and 52, are shown in FIGS. 27A-C (in DMSO:buffer 1:9) and 27D-F (DMSO:buffer 1:1). […] Excitation and emission spectra were normalized to their absorbance at the excitation wavelength, and are proportional to quantum yield.

Setting [1] is: DMSO:buffer 1:1, pH 7.4 phosphate buffer 12.5 mM.
[2] abbreviates: DMSO:buffer 1:9, pH 7.4 phosphate buffer 12.5 mM.

Marks after values point to notes of the source that are not given here.

With `N=c1ccc2c(-c3ccccc3C(=O)O)c3ccc4cc(N)ccc4c3oc-2c1` [Compound 50, seminaphthorhodamine], where the note is “DMSO buffer 1:9”, the Quantum yield was 19%, the “Red shift of maximum absorption compared to rhodamine 110” value is 40 nm and the “Red shift of maximum emission compared to rhodamine 110” value is roughly 100 nm. For the setting “DMSO:buffer 1:1”, this compound yielded a Brightness of 6298, an Em of 630 nm, an Ex of 542 nm and a Q.Y. of 0.30. The ε (DMSO:buffer 1:1) turned out to be 21064 M⁻¹ cm⁻¹. Under setting [1], this compound returned an Abs of 542 nm. Where the note is “DMSO:buffer 1:9”, the Brightness came to 8083, the Em came to 628 nm, the Ex was determined as 534 nm and the Q.Y. is 0.19. This compound showed a ε (DMSO:buffer 1:9) of 42701 M⁻¹ cm⁻¹. Further, the Abs under setting [2] turned out to be 535 nm.

Under “DMSO buffer 1:9”, `N=c1ccc2c(ccc3c(-c4ccccc4C(=O)O)c4ccc5cc(N)ccc5c4oc32)c1` [Compound 52, naphthorhodamine] gave a Quantum yield of 10%. For the setting “DMSO:buffer 1:1”, the Brightness is listed as 121^g, the Em was determined as 676 nm, the Ex is 596 nm and the Q.Y. is reported as 0.11. This compound also showed a ε (DMSO:buffer 1:1) of 1081 M⁻¹ cm⁻¹. The Abs under setting [1] is given as 602 nm. Under “DMSO:buffer 1:9”, the Brightness is on record as 1144^d, the Em stood at 668 nm, the Ex is listed as 584 nm and the Q.Y. was determined as 0.10. This compound also returned a ε (DMSO:buffer 1:9) of 11994 M⁻¹ cm⁻¹. Under setting [2], this compound showed an Abs of 578 nm.
